Each block holds one compound with its values, some of them ahead of it.
Assays:
Phosphodiesterase 1 [1] = molecular target: T1, Phosphodiesterase 1 (Homo sapiens, UniProt P54750+Q01064+Q14123); assay: Binding affinity for [Ca(2+)]/calmodulin dependent phosphodiesterase PDE 1 of human brain
Phosphodiesterase 3 [2] = molecular target: T2, Phosphodiesterase 3 (Homo sapiens, UniProt Q14432+Q13370); assay: Binding affinity for low Km cAMP phosphodiesterase PDE III of human platelets
Phosphodiesterase 1 [3] = molecular target: T1, Phosphodiesterase 1; assay: Inhibition of [Ca(2+)]/calmodulin dependent phosphodiesterase PDE 1 of human brain
Phosphodiesterase 3 [4] = molecular target: T2, Phosphodiesterase 3; assay: Inhibition of low Km cAMP phosphodiesterase PDE III of human platelets
Phosphodiesterase 1 [5] = molecular target: T1, Phosphodiesterase 1; assay: Binding affinity for [Ca(2+)]/calmodulin dependent phosphodiesterase PDE 1 of sheep lung; assay type: protein assay, Ovis aries; settings: target entry is the homologue from another species
Phosphodiesterase 3 [6] = molecular target: T2, Phosphodiesterase 3; assay: Binding affinity for low Km cAMP phosphodiesterase PDE III of sheep lung; settings: target entry is the homologue from another species
[7] = molecular target: T3, cGMP-dependent 3',5'-cyclic phosphodiesterase (Homo sapiens, UniProt O00408); assay: Inhibition of cyclic GMP sensitive phosphodiesterase PDE 2 of guinea pig ventricle; parameters: species or system Cavia porcellus; settings: target entry is the homologue from another species
T3 sequence (O00408 whole entry): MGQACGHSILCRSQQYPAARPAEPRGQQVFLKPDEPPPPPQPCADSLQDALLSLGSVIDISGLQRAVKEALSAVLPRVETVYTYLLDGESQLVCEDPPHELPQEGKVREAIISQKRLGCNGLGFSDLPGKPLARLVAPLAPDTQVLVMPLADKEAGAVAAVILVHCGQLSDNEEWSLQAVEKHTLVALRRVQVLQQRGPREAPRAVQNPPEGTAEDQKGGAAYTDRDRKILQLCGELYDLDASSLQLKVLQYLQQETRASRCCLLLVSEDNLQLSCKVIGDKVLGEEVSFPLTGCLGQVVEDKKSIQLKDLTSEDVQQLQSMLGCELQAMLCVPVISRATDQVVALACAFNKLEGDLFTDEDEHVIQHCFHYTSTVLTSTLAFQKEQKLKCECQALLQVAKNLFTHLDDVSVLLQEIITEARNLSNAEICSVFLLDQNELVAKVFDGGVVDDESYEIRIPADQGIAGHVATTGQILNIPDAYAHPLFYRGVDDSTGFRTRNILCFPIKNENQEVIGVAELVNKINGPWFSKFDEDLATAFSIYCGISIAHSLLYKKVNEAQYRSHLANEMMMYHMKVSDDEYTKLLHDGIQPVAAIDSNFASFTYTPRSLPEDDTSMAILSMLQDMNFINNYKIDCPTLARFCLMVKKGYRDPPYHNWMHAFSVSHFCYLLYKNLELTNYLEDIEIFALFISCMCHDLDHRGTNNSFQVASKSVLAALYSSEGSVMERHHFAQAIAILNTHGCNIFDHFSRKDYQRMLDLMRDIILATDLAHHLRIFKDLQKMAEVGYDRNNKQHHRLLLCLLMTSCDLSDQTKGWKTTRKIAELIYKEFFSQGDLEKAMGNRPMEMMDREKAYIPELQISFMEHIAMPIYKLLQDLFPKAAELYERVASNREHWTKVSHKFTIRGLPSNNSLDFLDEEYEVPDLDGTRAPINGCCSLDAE

Phosphodiesterase 1 [8] = molecular target: T1, Phosphodiesterase 1; assay: Inhibition of [Ca(2+)]/calmodulin dependent phosphodiesterase PDE 1 of guinea pig ventricle; assay type: protein assay, Cavia porcellus; settings: target entry is the homologue from another species
Phosphodiesterase 3 [9] = molecular target: T2, Phosphodiesterase 3; assay: Inhibition of low Km cyclic cAMP phosphodiesterase PDE III of guinea pig ventricle; assay type: protein assay, Cavia porcellus; settings: target entry is the homologue from another species
[10] = molecular target: T3, cGMP-dependent 3',5'-cyclic phosphodiesterase; assay: Percent inhibition of cyclic GMP sensitive phosphodiesterase PDE 2 of guinea pig ventricle; settings: Cavia porcellus; target entry is the homologue from another species; concentration not given here
Phosphodiesterase 1 [11] = molecular target: T1, Phosphodiesterase 1; assay: Percent inhibition of [Ca(2+)]/calmodulin dependent phosphodiesterase PDE 1 of guinea pig ventricle; assay type: protein assay; settings: Cavia porcellus; target entry is the homologue from another species; concentration not given here
Phosphodiesterase 3 [12] = molecular target: T2, Phosphodiesterase 3; assay: Percent inhibition of low Km cyclic cAMP phosphodiesterase PDE III of guinea pig ventricle; assay type: protein assay; settings: Cavia porcellus; target entry is the homologue from another species; concentration not given here
Phosphodiesterase 1 [13] = molecular target: T1, Phosphodiesterase 1; assay: Inhibition of [Ca(2+)]/calmodulin dependent phosphodiesterase PDE 1 of rabbit renal cortex; settings: Oryctolagus cuniculus; target entry is the homologue from another species
[14] = molecular target: T3, cGMP-dependent 3',5'-cyclic phosphodiesterase; assay: Inhibition of cyclic GMP sensitive phosphodiesterase PDE 2 of human lung
Phosphodiesterase 1 [15] = molecular target: T1, Phosphodiesterase 1; assay: Inhibition of [Ca(2+)]/calmodulin dependent phosphodiesterase PDE 1 of human lung; assay type: protein assay
Phosphodiesterase 3 [16] = molecular target: T2, Phosphodiesterase 3; assay: Binding affinity for low Km cAMP phosphodiesterase PDE III of sheep lung; assay type: protein assay, Ovis aries; settings: target entry is the homologue from another species
Phosphodiesterase 3 [17] = molecular target: T2, Phosphodiesterase 3; assay: Inhibition of low Km cyclic AMP phosphodiesterase PDE III of canine ventricle; assay type: protein assay, Canis lupus familiaris; settings: target entry is the homologue from another species

IC50 [7]: 57 µM | IC50 (Phosphodiesterase 1 [8]): 265 µM | IC50 (Phosphodiesterase 3 [9]): 390 µM
SMILES: COc1ccc(-c2nc3ccc[nH]c-3n2)c(OC)c1

inhibition [10]: 0% | inhibition (Phosphodiesterase 1 [11]): 5% | inhibition (Phosphodiesterase 3 [12]): 92%
SMILES: CC(Cl)C(=O)Nc1ccc(C2=NNC(=O)CC2C)cc1 (centres undefined)

inhibition [10]: 6% | inhibition (Phosphodiesterase 1 [11]): 15% | inhibition (Phosphodiesterase 3 [12]): 97%
SMILES: CC1CC(=O)NN=C1c1ccc2c(c1)CCC(=O)N2C (centres undefined)

Ki (Phosphodiesterase 1 [1]): 22 µM
SMILES: CN(C(=O)CCCOc1ccc2[nH]c(=O)ccc2c1)C1CCCCC1 [CILOSTAMIDE]

IC50 [7]: 520 µM | IC50 (Phosphodiesterase 1 [8]): > 1000 µM
SMILES: CSc1ccc(C(=O)c2[nH]c(=O)[nH]c2C)cc1 [ENOXIMONE]

Ki (Phosphodiesterase 1 [1]): 10 µM | Ki (Phosphodiesterase 3 [2]): 1.4 µM
SMILES: CCOC(=O)c1c(C)cc2c(CO)n[nH]c(=O)c2c1C [OXAGRELATE]

IC50 (Phosphodiesterase 3 [17]): 8.6 µM
SMILES: CCc1[nH]c(=O)[nH]c1C(=O)c1ccncc1 [PIROXIMONE]

IC50 [14]: 390 µM | IC50 (Phosphodiesterase 1 [15]): 250 µM
SMILES: CCCCOc1cc(CC2CNC(=O)N2)ccc1OC (centres undefined) [RO-201724]

IC50 [7]: 200 µM
SMILES: COc1cc([S+](C)[O-])ccc1-c1nc2ncccc2[nH]1 (centres undefined) [SULMAZOLE]

Further lines, the compound ahead of its results:

SMILES: CCOC(CN1CCN(S(=O)(=O)c2ccc3ncnc(N(C)c4ccccc4)c3c2)CC1)c1ccccc1 (centres undefined)
Ki (Phosphodiesterase 1 [1]): 4 µM | Ki (Phosphodiesterase 3 [2]): 270 µM

SMILES: Clc1cccc(Nc2nnc(-c3ccccc3)c3ccccc23)c1
Ki (Phosphodiesterase 3 [2]): 16 µM

SMILES: CCC(O)CN(C(=O)CCCCOc1ccc2c(c1)CCC(=O)N2)c1ccccc1 (centres undefined)
IC50 (Phosphodiesterase 1 [3]): > 1000 µM | IC50 (Phosphodiesterase 3 [4]): 0.073 µM

SMILES: CCCc1nc(C)cn2c(NC(C)=O)nnc12
Ki (Phosphodiesterase 1 [5]): 717 µM | Ki (Phosphodiesterase 3 [6]): 217 µM

SMILES: COc1ccc(C2CNC(=O)C2)cc1OC1CCCC1 (centres undefined)
IC25 (Phosphodiesterase 1 [13]): 1400 µM

SMILES: CCCCc1cc2c(=O)cc(C(=O)O)[nH]c2c2c(=O)cc(C(=O)O)[nH]c12 [BUFROLIN]
IC50 [14]: 80 µM | IC50 (Phosphodiesterase 1 [15]): 16 µM

SMILES: O=C1CCc2cc(OCCCCc3nnnn3C3CCCCC3)ccc2N1 [CILOSTAZOL]
IC50 (Phosphodiesterase 1 [3]): > 1000 µM | IC50 (Phosphodiesterase 3 [4]): 0.19 µM

SMILES: OCCN(CCO)c1nc(N2CCCCC2)c2nc(N(CCO)CCO)nc(N3CCCCC3)c2n1 [DIPYRIDAMOLE]
IC50 (Phosphodiesterase 3 [9]): 43 µM

SMILES: CCOC(=O)c1cnc2c(cnn2CC)c1NN=C(C)C [ETAZOLATE]
Ki (Phosphodiesterase 1 [5]): 60 µM | Ki (Phosphodiesterase 3 [16]): 12 µM

SMILES: Nc1cc(-c2ccncc2)c[nH]c1=O [INAMRINONE]
IC50 [7]: 700 µM | IC50 (Phosphodiesterase 1 [8]): > 1000 µM

SMILES: CC(C)Cn1c(=O)n(C)c(=O)c2nc[nH]c21 [ISOBUTYLMETHYLXANTHINE]
IC50 [14]: 12 µM | IC50 (Phosphodiesterase 1 [15]): 3.4 µM

SMILES: Cn1c(=O)c2nc[nH]c2n(C)c1=O.O [THEOPHYLLINE]
IC50 [7]: 210 µM | IC50 (Phosphodiesterase 1 [8]): 320 µM

Reference: ChEMBL document CHEMBL1123112, “A new generation of phosphodiesterase inhibitors: multiple molecular forms of phosphodiesterase and the potential for drug selectivity” (J Med Chem, 1985)
